Data published in PubChem BioAssay AID1996.
Converted amounts (≈) assume the structure as drawn.

Conditions: buffer; pH 7.4; 200.0 µM
Molecule `Cc1c(Cl)cccc1NC(=O)C1CCN(c2cnccn2)CC1` has a solubility kinetic of 2.1 µg/mL (≈ 6.35 µM). With `CCCCc1nc2ccccc2[nH]1` the solubility kinetic was > 26.1 µg/mL. In the case of `Cc1ccc(NC(=O)COC(=O)c2ccc[n+]([O-])c2)c(Br)c1`, the solubility kinetic is reported as > 54.8 µg/mL. In the case of `CCC(=O)N/C(N)=N/c1nc(C)c2cc(C)c(C)cc2n1`, the solubility kinetic is reported as 11.6 µg/mL (≈ 40.7 µM). For `COc1ccccc1NS(=O)(=O)c1cccc(NS(=O)(=O)c2cc(C(=O)O)ccc2OC)c1`, the solubility kinetic was > 73.9 µg/mL. With `O=[N+]([O-])c1cccc(S(=O)(=O)NCCc2cccs2)c1` the solubility kinetic was > 46.9 µg/mL. With `Cc1cc(=O)n2c(n1)NC(Nc1cccc(C)c1C)=NC2c1ccccc1` (configuration not stated) the solubility kinetic was 1.7 µg/mL (≈ 4.73 µM). In the case of `O=C(NCc1ccco1)c1cnn2cccnc12`, the solubility kinetic is reported as > 36.3 µg/mL. Molecule `CC(=O)N1CCN(CC(=O)Nc2cc([N+](=O)[O-])ccc2Cl)CC1` has a solubility kinetic of 43.4 µg/mL (≈ 127 µM). In the case of `COCCNC(=O)Cn1cc(C=C2C(=O)NC(=O)NC2=O)c2ccccc21`, the solubility kinetic is reported as 6.3 µg/mL (≈ 17 µM). In the case of `NS(=O)(=O)c1ccc(NC(=O)Cc2cccs2)cc1`, the solubility kinetic is reported as > 44.5 µg/mL. In the case of `COc1ccc(NC(=O)COc2ccc3oc(=O)cc(C)c3c2)cc1`, the solubility kinetic is reported as < 0.7 µg/mL. In the case of `Nc1ccccc1SCc1ccccc1Cl`, the solubility kinetic is reported as 3.3 µg/mL (≈ 13.2 µM). In the case of `NS(=O)(=O)c1ccc(NC(=O)c2ccc3nccnc3c2)cc1`, the solubility kinetic is reported as 7.5 µg/mL (≈ 22.8 µM). In the case of `CC(=O)Nc1cccc(NC(=O)Cc2ccc3ccccc3c2)c1`, the solubility kinetic is reported as 0.9 µg/mL (≈ 2.83 µM). Work on `CCOc1ccc(S(=O)(=O)NCCC(=O)N2CCCN(C)CC2)cc1` yielded a solubility kinetic of 50.4 µg/mL (≈ 136 µM). `CCCCn1c(=O)[nH]c(=O)c2c1nc(-c1cccc(OC)c1)n2C` gave a solubility kinetic of 3.1 µg/mL (≈ 9.44 µM). With `COc1cccc(N=C2CC(C)(C)CC(=O)/C2=C(/O)c2ccccc2)c1` the solubility kinetic was 0.9 µg/mL (≈ 2.58 µM). With `COc1ccc(CC(C)Nc2cccc(SC)c2)cc1` (configuration not stated) the solubility kinetic was 1.6 µg/mL (≈ 5.57 µM). `O=C(Nc1cccc2c1CCCC2)c1ccc(F)cc1` showed a solubility kinetic of 2.2 µg/mL (≈ 8.17 µM). For `CC1CC(C)CN(C(=O)CSc2n[nH]c(N)n2)C1` (configuration not stated), the solubility kinetic was > 40.4 µg/mL. With `O=C(N1CCCC1)N1CCN(S(=O)(=O)c2ccccc2)CC1` the solubility kinetic was 34.4 µg/mL (≈ 106 µM). Molecule `COc1ccc(CNc2ccc(Cl)cc2)cc1Cn1ccnc1` has a solubility kinetic of 31.1 µg/mL (≈ 94.9 µM). For `CN(C)c1cc(-c2ccc([N+](=O)[O-])cc2)oc(=O)c1Cl`, the solubility kinetic was 0.9 µg/mL (≈ 3.05 µM). `Cc1ccc(S(=O)(=O)N2CCN(C(=O)COC(=O)c3cncc(Br)c3)CC2)c(C)c1` gave a solubility kinetic of 5.3 µg/mL (≈ 10.7 µM). For `CCCCCCCCNC1=CC(=O)CC(C)(C)C1`, the solubility kinetic was 12.5 µg/mL (≈ 49.7 µM). `N#C/C(=C(/O)COC(=O)c1ccc(O)cc1)c1nc2ccccc2[nH]1` gave a solubility kinetic of 9 µg/mL (≈ 26.8 µM). With `Cc1cc(C)nc(SC(C)CNS(=O)(=O)c2ccccc2)n1` (configuration not stated) the solubility kinetic was 45.9 µg/mL (≈ 136 µM). `Cc1ccc(NC(=O)CSc2cccc3cccnc23)c(C)c1` showed a solubility kinetic of 5.2 µg/mL (≈ 16.1 µM). `Cc1c(C(=O)N2CCN(c3ncccn3)CC2)oc2ccc(F)cc12` showed a solubility kinetic of 9.5 µg/mL (≈ 27.9 µM). `CCOc1ccccc1NC(=O)CCn1ccnc1` gave a solubility kinetic of 37 µg/mL (≈ 143 µM). With `Cc1ccc(Nc2c([N+](=O)[O-])ccc3nonc23)cc1C` the solubility kinetic was 0.4 µg/mL (≈ 1.41 µM). In the case of `O=C(O)c1nc(NCCc2ccccc2)ncc1Cl`, the solubility kinetic is reported as > 41.7 µg/mL. In the case of `Cc1nc(Nc2ccccc2F)c2oc3ccccc3c2n1`, the solubility kinetic is reported as 0.3 µg/mL (≈ 1.02 µM). In the case of `Cc1cccc(Nc2nc(OCC#N)nc(N(C)C)n2)c1`, the solubility kinetic is reported as 2.8 µg/mL (≈ 9.85 µM). In the case of `COC(=O)c1ccc(C)c(NC(=O)Cn2c(C)csc2=O)c1`, the solubility kinetic is reported as > 48.1 µg/mL. With `CSc1cccc(NC(=O)COC(=O)c2ccccn2)c1` the solubility kinetic was > 45.4 µg/mL. In the case of `CC(=O)Nc1ccc(S(=O)(=O)NCCC(=O)N2CCN(c3ccccc3Cl)CC2)cc1`, the solubility kinetic is reported as > 69.7 µg/mL. In the case of `CC(O)CNCCCOc1cccc(C(F)(F)F)c1.O=C(O)C(=O)O` (configuration not stated), the solubility kinetic is reported as 51.7 µg/mL. With `CCC(=O)Nc1cccc(C(=O)Nc2nccs2)c1` the solubility kinetic was > 41.3 µg/mL. In the case of `O=C1NCCN1CCNS(=O)(=O)c1ccccc1[N+](=O)[O-]`, the solubility kinetic is reported as > 47.1 µg/mL. Molecule `O=C(O)C1C2C=CC(C2)C1C(=O)NCc1ccc(Cl)cc1Cl` (configuration not stated) has a solubility kinetic of 45.3 µg/mL (≈ 133 µM).
